{"source": "patent US20110281289A1", "about": "“QUANTIFICATION OF ENZYME ACTIVITY BY MASS SPECTROMETRY USING IMMOBILIZED SUBSTRATES” (LUDWIG INSTITUTE FOR CANCER RESEARCH LTD., priority 2008, published 2011)", "assay_type_in_all_cases": "cell-based", "key": {"[1]": {"system": "PI3K", "test": "Peptide kinase assay using the Aktide peptide (protocols of WO 07/127,767) with P31-Fuji total cell lysates", "conditions": "P31-Fuji cells treated with LY294002 before lysis, vs control", "excerpt": "Data from a peptide kinase assay using the Aktide peptide (a peptide substrate with sequence RPRAATF—SEQ ID NO: 24—known to provide a readout of PI3K pathway activation) was compared with the data from a multiplex kinase assay using full length protein substrates. For this, P31-Fuji cells (an acute myeloid leukaemia cell line) were lysed and the kinase activity in total cell lysates measured using the protocols disclosed in WO 07/127,767 or using the protocols disclosed herein. Before lysis, cells were divided into two groups—(1) control and (2) treated with LY294002 (an inhibitor of PI3K which controls downstream protein kinases that phosphorylate the Aktide)."}, "[2]": {"system": "PI3K", "test": "Multiplex kinase assay on immobilized full length protein substrates (pool 1, pool 2) with lysates of P31-Fuj AML cells, LC-MS readout", "set-up": "relative kinase activity (normalized to mean of control and treated, log 2 converted), phosphopeptide SMAD-1 RVESPVLPPVLVPR SEQ ID NO: 5: dose or concentration left out as unconfirmed", "procedure": "P31-Fuj AML cells were seeded at a density of 500000 cells/mL. […] Cells were washed twice in ice cold PBS containing 100 mM NaVO3 and 1 mM NaF and were subsequently harvested and lysed in the following lysis buffer: 40 mM Hepes pH 7.5, 120 mM NaCl, 1 mM EDTA, 10 mM pyrophosphate, 10 mM glycerophosphate, 50 mM NaF, 0.5 mM orthovanadate, 0.3% CHAPS, and complete protease inhibitors (Roche). […] After allowing the reactions to occur in the presence of ATP and Mg^2+, samples were trypsin digested and subject to LC-MS analysis. […] Data from a peptide kinase assay using the Aktide peptide (a peptide substrate with sequence RPRAATF—SEQ ID NO: 24—known to provide a readout of PI3K pathway activation) was compared with the data from a multiplex kinase assay using full length protein substrates."}, "[3]": {"system": "PI3K signalling activity", "test": "Kinase reaction on immobilized BAD with lysates of serum-stimulated NIH-3T3 cells pre-treated or not with inhibitors, LC-MS readout", "conditions": "starved NIH-3T3 cells pre-treated with inhibitor, 10% fetal calf serum 5 minutes before lysis", "procedure": "Starved NIH-3T3 cells, pre-treated or not with the inhibitors Wortmannin (WM) or PD98059 (PD), were stimulated with 10% fetal calf serum for 5 minutes prior to cell lysis. Cell lysates were mixed with immobilized BAD and ATP/Mg^2+ and reactions allowed to occur at 37° C. for the indicated times. Reactions were stopped and beads washed to remove lysate components and to buffer exchange to 50 mM ammonium bicarbonate. Immobilized phosphorylated BAD was digested with trypsin and resultant peptides analysed by LC-MS and LC-MS/MS.\nMass spectrometry was used to multiplex the measurement of protein kinase activities, using BAD as a substrate for in vitro reactions. BAD is a known substrate of the protein kinase AKT/PKB, which is downstream of PI3K and upstream mTORC1. Mouse His-Tag-BAD protein was immobilized to SEPHAROSE® beads. In subsequent experiments, human proteins were synthesised with N-terminal GST and His tags separated by a PreScission protease cleavage site. Purification was performed with glutathione S-sepharose chromatography. […] These immobilized proteins were used as substrates for kinase reactions using total cell lysates as an enzyme source.\nStarved NIH-3T3 cells, pre-treated or not with the inhibitors WM or PD, were stimulated with 10% fetal calf serum for 5 minutes prior to cell lysis. Cell lysates were mixed with immobilized BAD and ATP/Mg^2+ and reactions allowed to occur at 37° C. for the times indicated in FIG. 3. Reactions were stopped, and the beads washed three times to remove lysate components and to buffer exchange to 50 mM ammonium bicarbonate. For each wash, beads were isolated from the reaction by magnetic separation using a magnet. Immobilised phosphorylated BAD was digested with trypsin and resultant peptides analysed by LC-MS and LC-MS/MS. […] These observed activities increased when serum was added to the medium prior to lysis and were sensitive to the addition of wortmannin (WM) but not the MEK inhibitor PD98059 (PD), thus arguing that these activities are a measure of WM target inhibition, probably PI3K signalling activity, a known target of WM, and are probably downstream PI3K."}, "[4]": {"conditions": "Pool 1, P31-Fuj AML cells, 10 mM LY204002 for 1 hr"}, "[5]": {"conditions": "Pool 2, P31-Fuj AML cells, 10 mM LY204002 for 1 hr"}, "[6]": {"conditions": "full length protein substrate, P31-Fuji cells treated with LY294002 before lysis, vs control"}}, "data": [{"smiles": "O=c1cc(N2CCOCC2)oc2c(-c3ccccc3)cccc12", "note": "[Ly294002, LY294002]", "values": [{"measurement": "reduction on the kinase activity towards the Aktide", "setting": "[1]", "value": "about 85%"}, {"measurement": "relative kinase activity (normalized, log 2), phosphopeptide Annexin MYGISLCQAILDETKGDYEK SEQ ID NO: 11", "setting": "[2]; [4]", "value": 0.429}, {"measurement": "relative kinase activity (normalized, log 2), phosphopeptide Beta Catenin AAVSHWQQQSYLDSGIHSGATTTAPSLSGK SEQ ID NO: 12", "setting": "[2]; [4]", "value": "−1.337"}, {"measurement": "relative kinase activity (normalized, log 2), phosphopeptide Beta Catenin TSMGGTQQQFVEGVR SEQ ID NO: 13", "setting": "[2]; [4]", "value": "−0.5836"}, {"measurement": "relative kinase activity (normalized, log 2), phosphopeptide SMAD-1 HSEYNPQHSLLAQFR SEQ ID NO: 6", "setting": "[2]; [4]", "value": "−2.2905"}, {"measurement": "relative kinase activity (normalized, log 2), phosphopeptide myc CHVSTHQHNYAAPPSTR SEQ ID NO: 7", "setting": "[2]; [4]", "value": 0.1282}, {"measurement": "relative kinase activity (normalized, log 2), phosphopeptide myc FELLPTPPLSPSR SEQ ID NO: 8", "setting": "[2]; [4]", "value": 0.1492}, {"measurement": "relative kinase activity (normalized, log 2), phosphopeptide myc FELLPTPPLSPSRR SEQ ID NO: 9", "setting": "[2]; [4]", "value": "−0.0685"}, {"measurement": "relative kinase activity (normalized, log 2), phosphopeptide myc VKLDSVR SEQ ID NO: 10", "setting": "[2]; [4]", "value": -0.3467}, {"measurement": "relative kinase activity (normalized to mean of control and treated, log 2 converted), phosphopeptide SMAD-1 RVESPVLPPVLVPR SEQ ID NO: 5", "setting": "[2]; Pool 1, P31-Fuj AML cells, LY204002 for 1 hr", "value": "−0.6559"}, {"measurement": "relative kinase activity (normalized, log 2), phosphopeptide 4ebp1 TPPRDLPTIPGVTSPSSDEPPMEASQSHLR SEQ ID NO: 19", "setting": "[2]; [5]", "value": "−4.332"}, {"measurement": "relative kinase activity (normalized, log 2), phosphopeptide S6 DIPGLTDTTVPR SEQ ID NO: 14", "setting": "[2]; [5]", "value": "−0.573"}, {"measurement": "relative kinase activity (normalized, log 2), phosphopeptide S6 DIPGLTDTTVPRR SEQ ID NO: 15", "setting": "[2]; [5]", "value": 0.007685}, {"measurement": "relative kinase activity (normalized, log 2), phosphopeptide foxo AVSMDNSNKYTK SEQ ID NO: 18", "setting": "[2]; [5]", "value": "−0.6542"}, {"measurement": "relative kinase activity (normalized, log 2), phosphopeptide foxo HNLSLHSR SEQ ID NO: 17", "setting": "[2]; [5]", "value": "−0.1853"}, {"measurement": "relative kinase activity (normalized, log 2), phosphopeptide foxo WPGSPTSR SEQ ID NO: 16", "setting": "[2]; [5]", "value": "−0.6519"}, {"measurement": "relative kinase activity (normalized, log 2), phosphopeptide p53 ALPNNTSSSPQPK SEQ ID NO: 21", "setting": "[2]; [5]", "value": "−5.826"}, {"measurement": "relative kinase activity (normalized, log 2), phosphopeptide p53 CSDSDGLAPPQHLIR SEQ ID NO: 22", "setting": "[2]; [5]", "value": "−3.078"}, {"measurement": "relative kinase activity (normalized, log 2), phosphopeptide p53 RALPNNTSSSPQPK SEQ ID NO: 23", "setting": "[2]; [5]", "value": "−1.587"}, {"measurement": "relative kinase activity (normalized, log 2), phosphopeptide p53 SVTCTYSPALNK SEQ ID NO: 20", "setting": "[2]; [5]", "value": "−2.051"}, {"measurement": "reduction of kinase activity towards Ser94 on the substrate 4EBP1", "setting": "[2]; [6]", "value": 95, "unit": "%"}, {"measurement": "reduction of kinase activity towards Ser121 on the substrate p53", "setting": "[2]; [6]", "value": 99, "unit": "%"}]}, {"smiles": "COc1cccc(-c2cc(=O)c3ccccc3o2)c1N", "note": "[PD98059]", "values": [{"measurement": "kinase activity towards BAD pS136 (SEQ ID NO: 4)", "setting": "[3]", "value": "not sensitive"}, {"measurement": "kinase activity towards BAD pS170 (SEQ ID NO: 3)", "setting": "[3]", "value": "not sensitive"}, {"measurement": "kinase activity towards BAD pS136 (SEQ ID NO: 4)", "setting": "[3]; listed as PD", "value": "sensitive to the addition of WM but not PD"}, {"measurement": "kinase activity towards BAD pS170 (SEQ ID NO: 3)", "setting": "[3]; listed as PD", "value": "sensitive to the addition of WM but not PD"}]}]}
